Source: patent US20230181536A1, “ANTICANCER COMBINATION THERAPY WITH N-(1-ACRYLOYL-AZETIDIN-3-YL)-2-((1H-INDAZOL-3-YL)AMINO)METHYL)-1H-IMIDAZOLE-5-CARBOXAMIDE INHIBITOR OF KRAS-G12C” (TAIHO PHARMACEUTICAL CO., LTD., priority 2020, published 2023)

Molecular target: T1, KRAS G12C (Homo sapiens, UniProt P01116, G12C)
T1 construct: KRAS G12C (amino acid region: 1-169)
Assay: Inhibitory activity on the KRAS G12C nucleotide (GDP-GTP) exchange reaction
Type: biochemical
Details: Bodipy FL GDP-bound KRAS G12C 25 nM; preincubation at 25° C. for 4 hours; SOS1 100 nM, GppNHp 1 μM, reaction for 30 minutes
Description: Test Example 2: Evaluation of Inhibitory Activity of Compounds on the KRAS G12C Nucleotide (GDP-GTP) Exchange Reaction
The inhibitory activity of compounds on the exchange reaction of GDP into GppNHp in Bodipy (trademark) FL-bound KRAS G12C was examined by fluorescence measurement using human recombinant KRAS G12C and SOS1 proteins.
For the preparation of KRAS G12C to which Bodipy FL GDP was bound, first, 50 µM KRAS G12C (amino acid region: 1-169) and 1 mM Bodipy FL GDP (Invitrogen, G22360) were incubated for 1 hour in a buffer (20 mM Tris-HCl (pH 7.5), 50 mM NaCl, 1 mM DTT) in ice in the presence of 2.5 mM EDTA. Thereafter, MgCl2 with a final concentration of 10 mM was added, and the mixture was incubated at room temperature for 30 minutes. The protein was allowed to pass through a NAP-5 column to remove free nucleotides and was used for compound evaluation.
For the measurement of the inhibitory activity of compounds on nucleotide exchange reaction, first, the compound of the disclosure was diluted stepwise with dimethyl sulfoxide (DMSO). Subsequently, a solution of the gradually diluted compound of the disclosure in DMSO (the final concentration of DMSO: 5%) and KRAS G12C (25 nM) bound to Bodipy FL GDP were added to a reaction buffer (20 mM Tris-HCl (pH 7.5), 100 mM NaCl, 1 mM MgCl2, 2 mM DTT, 0.1% Tween20), followed by preincubation at 25° C. for 4 hours. Thereafter, Son of Sevenless Homolog 1 (SOS1, amino acid region: 564-1049) and GppNHp (GMPPNP, Jena Bioscience GmbH, NU-401-50) were added such that their final concentration was 100 nM and 1 μM respectively, followed by reaction for 30 minutes. The change in fluorescence intensity of Bodipy FL (excitation wavelength: 485 nm, fluorescence wavelength: 520 nm) immediately after the start of reaction and after 30 minutes from the start of reaction was standardized. The signal value for only DMSO was determined to be 0% inhibition, and the signal value for no addition of GppNHp was determined to be 100% inhibition. The compound concentration at which 50% inhibition is achieved was determined to be the IC50 (nM) and was calculated.

T1 sequence (P01116 1-169 isoform P01116-2 G12C): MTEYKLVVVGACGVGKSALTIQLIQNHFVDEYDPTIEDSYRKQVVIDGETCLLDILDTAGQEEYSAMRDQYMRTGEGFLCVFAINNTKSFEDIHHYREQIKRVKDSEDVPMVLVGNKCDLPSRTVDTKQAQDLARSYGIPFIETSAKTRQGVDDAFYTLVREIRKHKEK

First: C=CC(=O)N1CC(NC(=O)c2c(C)nc(CNc3n[nH]c4ccc(C(C)(C)C)cc34)n2C(C)C)C1 [Example 42, N-(1-acryloylazetidin-3-yl)-2-(((5-(tert-butyl)-1H-indazol-3-yl)amino)methyl)-1-isopropyl-4-methyl-1H-imidazole-5-carboxamide]
Second: C=CC(=O)N1CC(NC(=O)c2c(Cl)nc(CNc3n[nH]c4cc(Cl)c(C(C)C)cc34)n2C(C)C)C1 [Example 45, N-(1-acryloylazetidin-3-yl)-4-chloro-2-(((6-chloro-5-isopropyl-1H-indazol-3-yl)amino)methyl)-1-isopropyl-1H-imidazole-5-carboxamide]
The IC50 of the first is 2.8-fold higher: 0.068 µM for the first, 0.024 µM for the second.

Going from C=CC(=O)N1CC(NC(=O)c2c(Cl)nc(CNc3n[nH]c4cc(Cl)c(C(=C)C(F)(F)F)cc34)n2C(C)C)C1 [Example 43, N-(1-acryloylazetidin-3-yl)-4-chloro-2-(((6-chloro-5-(3,3,3-trifluoroprop-1-en-2-yl)-1H-indazol-3-yl)amino)methyl)-1-isopropyl-1H-imidazole-5-carboxamide] to C=CC(=O)N1CC(NC(=O)c2c(Cl)nc(CNc3n[nH]c4cc(Cl)c(C5(C(F)(F)F)CC5)cc34)n2C(C)C)C1 [Example 44, N-(1-acryloylazetidin-3-yl)-4-chloro-2-(((6-chloro-5-(-(trifluoromethyl)cyclopropyl)-1H-indazol-3-yl)amino)methyl)-1-isopropyl-1H-imidazole-5-carboxamide], the IC50 falls from 0.809 µM to 0.18 µM (4.5-fold).

First: C=CC(=O)NC1CN(C(=O)c2c(C)nc(CNc3n[nH]c4cc(Cl)c(C(C)(C)C)cc34)n2C)C1 [Example 46, N-(1-(2-(((5-(tert-butyl)-6-chloro-1H-indazol-3-yl)amino)methyl)-1,4-dimethyl-1H-imidazole-5-carbonyl)azetidin-3-yl) acrylamide]
Second: C=CC(=O)N(C)C1CN(C(=O)c2c(C)nc(CNc3n[nH]c4cc(Cl)c(C(C)(C)C)cc34)n2C)C1 [Example 51, N-(1-(2-(((5-(tert-butyl)-6-chloro-1H-indazol-3-yl)amino)methyl)-1,4-dimethyl-1H-imidazole-5-carbonyl)azetidin-3-yl)-N-methylacrylamide]
The IC50 of the first is 2.2-fold higher: 0.092 µM for the first, 0.042 µM for the second.

First: C=CC(=O)N1CCC(NC(=O)c2c(C)nc(CNc3n[nH]c4cc(Cl)c(C(C)(C)C)cc34)n2C)CC1 [Example 47, N-(1-acryloylpiperidin-4-yl)-2-(((5-(tert-butyl)-6-chloro-1H-indazol-3-yl)amino)methyl)-1,4-dimethyl-1H-imidazole-5-carboxamide]
Second: C=CC(=O)N1CCC(NC(=O)c2c(C)nc(CNc3n[nH]c4cc(Cl)c(C(C)(C)C)cc34)n2C)C1 (centres unmarked) [Example 48, N-(1-acryloylpyrrolidin-3-yl)-2-(((5-(tert-butyl)-6-chloro-1H-indazol-3-yl)amino)methyl)-1,4-dimethyl-1H-imidazole-5-carboxamide]
The IC50 of the first is 14-fold higher: 1.73 µM for the first, 0.126 µM for the second. The second is the more potent here.

First: C=CC(=O)N1CC(N(C)C(=O)c2c(C)nc(CNc3n[nH]c4cc(Cl)c(C(C)(C)C)cc34)n2C)C1 [Example 49, N-(1-acryloylazetidin-3-yl)-2-(((5-(tert-butyl)-6-chloro-1H-indazol-3-yl)amino)methyl)-N,1,4-trimethyl-1H-imidazole-5-carboxamide]
Second: C=CC(=O)N1C[C@@H](C)[C@@H](NC(=O)c2c(C)nc(CNc3n[nH]c4cc(Cl)c(C(C)(C)C)cc34)n2C)C1 [Example 55, N-((3R,4R)-1-acryloyl-4-methylpyrrolidin-3-yl)-2-(((5-(tert-butyl)-6-chloro-1H-indazol-3-yl)amino)methyl)-1,4-dimethyl-1H-imidazole-5-carboxamide]
The IC50 of the first is 8.7-fold higher: 0.208 µM for the first, 0.024 µM for the second. The second is the more potent here.

Compared with C=CC(=O)N1CCN(C(=O)c2c(C)nc(CNc3n[nH]c4cc(Cl)c(C(C)(C)C)cc34)n2C)CC1 [Example 50, 1-(4-(2-(((5-(Tert-butyl)-6-chloro-1H-indazol-3-yl)amino)methyl)-1,4-dimethyl-1H-imidazole-5-carbonyl)piperazin-1-yl)prop-2-en-1-one], C=CC(=O)N1C[C@H](NC(=O)c2c(C)nc(CNc3n[nH]c4cc(Cl)c(C(C)(C)C)cc34)n2C)C2(CC2)C1 [Example 54, (R)-N-(5-acryloyl-5-azaspiro[2.4]heptan-7-yl)-2-(((5-(tert-butyl)-6-chloro-1H-indazol-3-yl)amino)methyl)-1,4-dimethyl-1H-imidazole-5-carboxamide] is 14-fold lower in IC50: 4.28 µM for the first, 0.301 µM for the second.

First: C=CC(=O)N1CC(NC(=O)c2c(C)nc(CNc3n[nH]c4cc(Cl)c(C(C)(C)C)cc34)n2C)C(F)(F)C1 (centres unmarked) [Example 53, N-(1-acryloyl-4,4-difluoropyrrolidin-3-yl)-2-(((5-(tert-butyl)-6-chloro-1H-indazol-3-yl)amino)methyl)-1,4-dimethyl-1H-imidazole-5-carboxamide]
Second: C=CC(=O)N1C[C@@H](F)[C@@H](NC(=O)c2c(C)nc(CNc3n[nH]c4cc(Cl)c(C(C)(C)C)cc34)n2C)C1 [Example 57, N-((3S,4R)-1-acryloyl-4-fluoropyrrolidin-3-yl)-2-(((5-(tert-butyl)-6-chloro-1H-indazol-3-yl)amino)methyl)-1,4-dimethyl-1H-imidazole-5-carboxamide]
The IC50 of the first is 7.7-fold lower: 0.042 µM for the first, 0.324 µM for the second.

First: C=CC(=O)N1C[C@@H](O)[C@@H](NC(=O)c2c(C)nc(CNc3n[nH]c4cc(Cl)c(C(C)(C)C)cc34)n2C)C1 [Example 56, N-((3S,4R)-1-acryloyl-4-hydroxypyrrolidin-3-yl)-2-(((5-(tert-butyl)-6-chloro-1H-indazol-3-yl)amino)methyl)-1,4-dimethyl-1H-imidazole-5-carboxamide]
Second: C=CC(=O)N1C[C@H](NC(=O)c2c(C)nc(CNc3n[nH]c4cc(Cl)c(C(C)(C)C)cc34)n2C)[C@@H](O)C1 [Example 62, N-((3S,4S)-1-acryloyl-4-hydroxypyrrolidin-3-yl)-2-(((5-(tert-butyl)-6-chloro-1H-indazol-3-yl)amino)methyl)-1,4-dimethyl-1H-imidazole-5-carboxamide]
The IC50 of the first is 2.1-fold higher: 0.198 µM for the first, 0.096 µM for the second.

Going from C=CC(=O)N1C[C@@H](CO)[C@@H](NC(=O)c2c(C)nc(CNc3n[nH]c4cc(Cl)c(C(C)(C)C)cc34)n2C)C1 [Example 58, N-((3R,4R)-1-acryloyl-4-(hydroxymethyl)pyrrolidin-3-yl)-2-(((5-(tert-butyl)-6-chloro-1H-indazol-3-yl)amino)methyl)-1,4-dimethyl-1H-imidazole-5-carboxamide] to C=CC(=O)N1C[C@H](NC(=O)c2c(C)nc(CNc3n[nH]c4cc(Cl)c(C(C)(C)C)cc34)n2C)[C@@H](C)C1 [Example 60, N-((3R,4S)-1-acryloyl-4-methylpyrrolidin-3-yl)-2-(((5-(tert-butyl)-6-chloro-1H-indazol-3-yl)amino)methyl)-1,4-dimethyl-1H-imidazole-5-carboxamide], the IC50 rises from 0.028 µM to 1.5 µM (54-fold).

Compared with C=CC(=O)N1C[C@H](NC(=O)c2c(C)nc(CNc3n[nH]c4cc(Cl)c(C(C)(C)C)cc34)n2C)[C@H](OC)C1 [Example 61, N-((3S,4R)-1-acryloyl-4-methoxypyrrolidin-3-yl)-2-(((5-(tert-butyl)-6-chloro-1H-indazol-3-yl)amino)methyl)-1,4-dimethyl-1H-imidazole-5-carboxamide], C=CC(=O)N1C[C@H](NC(=O)c2c(C)nc(CNc3n[nH]c4cc(Cl)c(C(C)(C)C)cc34)n2C)[C@@H](OC)C1 [Example 63, N-((3S,4S)-1-acryloyl-4-methoxypyrrolidin-3-yl)-2-(((5-(tert-butyl)-6-chloro-1H-indazol-3-yl)amino)methyl)-1,4-dimethyl-1H-imidazole-5-carboxamide] is 2.5-fold lower in IC50: 0.21 µM for the first, 0.084 µM for the second.
